Measurements: patent US7063861B2, “Bioavailable composition of natural and synthetic HCA” (Sabinsa Corporation, priority 2000, dated 2006)

Legend:
[1] = Oral administration of garcinol, HCA and combination: body weight, food and fluid consumption in SKH-1 mice; type: in vivo; conditions: 0.05% GAR, 1% HCA, Mean ± SE
[2] = tested on: azoxymethane (AOM)-induced formation of aberrant colonic crypts (AC); assay: Azoxymethane (AOM)-induced formation of aberrant colonic crypts in CF-1 mice; type: in vivo; conditions: 10 week oral, 0.05% GAR, 1% HCA
TPA-induced ear edema = TPA-induced ear edema in female CF-1 mice; type: in vivo; conditions: 5 hours; for Weight per punch: mean ± SE
Experimental: The role of garcinol as a chemopreventive agent has been confirmed in an experiment in which CF-1 mice were treated topically with the inflammation and tumor promoting agent, TPA. [table]

[3] = Body weight and accumulation of fat in abdomen in CF-1 mice, 10 week oral administration; type: in vivo; conditions: 0.05% GAR, 1% HCA; for Body weight: AOM
ATP citrate lyase enzyme = conditions: in vitro, purified enzyme; cited from earlier work
[4] = rats fed (−) HCA; cited from earlier work
[5] = oral, before the feeding period; versus untreated controls; cited from earlier work
ATP citrate lyase [6] = target: T1, ATP citrate lyase (Homo sapiens, UniProt P53396); conditions: cited from earlier work
T1 construct: an in vitro study done on hepatic cells; endogenous in cells; host or cells: hepatic cells (species and cell type not specified)
T1 sequence (P53396 1-1101): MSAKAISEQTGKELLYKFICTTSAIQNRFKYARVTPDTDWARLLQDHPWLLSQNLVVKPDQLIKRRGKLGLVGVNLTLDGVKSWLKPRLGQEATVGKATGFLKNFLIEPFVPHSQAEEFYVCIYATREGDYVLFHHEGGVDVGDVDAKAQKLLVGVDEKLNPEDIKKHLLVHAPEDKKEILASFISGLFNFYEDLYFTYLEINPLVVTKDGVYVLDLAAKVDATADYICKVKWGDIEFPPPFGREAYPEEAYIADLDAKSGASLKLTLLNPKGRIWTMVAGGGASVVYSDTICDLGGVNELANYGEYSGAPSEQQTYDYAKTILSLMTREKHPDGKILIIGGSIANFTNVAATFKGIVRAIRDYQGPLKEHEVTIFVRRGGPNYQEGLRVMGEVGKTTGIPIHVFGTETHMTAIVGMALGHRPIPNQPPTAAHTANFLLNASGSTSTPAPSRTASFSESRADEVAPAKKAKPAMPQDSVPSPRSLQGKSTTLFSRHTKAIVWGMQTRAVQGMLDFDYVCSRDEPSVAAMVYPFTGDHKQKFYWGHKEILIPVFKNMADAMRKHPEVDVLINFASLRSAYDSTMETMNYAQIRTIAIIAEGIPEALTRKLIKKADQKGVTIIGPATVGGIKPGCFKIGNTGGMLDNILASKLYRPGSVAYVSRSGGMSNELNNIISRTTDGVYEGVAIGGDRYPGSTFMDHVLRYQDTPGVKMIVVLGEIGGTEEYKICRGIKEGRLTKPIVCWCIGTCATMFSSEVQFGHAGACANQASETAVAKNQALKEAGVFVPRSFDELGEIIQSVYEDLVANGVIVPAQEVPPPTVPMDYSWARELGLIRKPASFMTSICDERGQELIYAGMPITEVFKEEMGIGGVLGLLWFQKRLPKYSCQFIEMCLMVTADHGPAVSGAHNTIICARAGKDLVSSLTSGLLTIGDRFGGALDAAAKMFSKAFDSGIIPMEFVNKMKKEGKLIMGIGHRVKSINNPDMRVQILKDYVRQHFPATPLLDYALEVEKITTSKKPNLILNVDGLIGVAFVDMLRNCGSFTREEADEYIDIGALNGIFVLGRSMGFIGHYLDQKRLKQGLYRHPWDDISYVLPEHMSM

ATP citrate lyase [7] = target: T1, ATP citrate lyase; assay: Inhibition of ATP citrate lyase in hepatic cells in vitro; type: cell-based; conditions: extracellular versus cytosol
Text: In their U.S. Patent, the Inventors addressed an important issue regarding the bioavailability of the HCA compounds. The U.S. Pat. No. 5,783,603 patent described a manufacturing process leading to a unique structure for a potassium salt of HCA, which facilitated its transport across biological membranes, effectively delivering more HCA into the cytosol for the competitive inhibition of ATP citrate lyase. […] Therefore, a 10-fold excess amount of potassium HCA is needed outside of the target cell in order to achieve a concentration of 1/10 that amount in the cytosol. This finding of relatively poor bioavailability of HCA, was confirmed in pre-clinical experiments (14), and points out the need to further improve the bioavailability and efficacy of HCA.

[8] = TPA 1 nmol + GAR 0.1 umol topical on ear
[9] = TPA 1 nmol + GAR 0.5 umol topical on ear

`C=C(C)[C@@H](CC=C(C)C)C[C@@]12C[C@@H](CC=C(C)C)C(C)(C)[C@@](CC=C(C)C)(C(=O)C(C(=O)c3ccc(O)c(O)c3)=C1O)C2=O` [GAR, garcinol] gave a Body weight ([1]; 5 weeks) of 32.8 ± 0.37 gm, a Body weight ([1]; 7 weeks) of 33.9 ± 0.14 gm and a Body weight ([1]; 10 weeks) of 36.4 ± 0.55 gm. For the same compound, the AC per colon [2] was 7.8, the “AC per colon, percentage in parentheses (reduction versus control)” value [2] was 31.6% and the “Percent Inhibition of ear edema” value (TPA-induced ear edema; [8]) was 38.5%. The Weight per punch (TPA-induced ear edema; [8]) was 12.4 ± 0.81 mg, the “Percent Inhibition of ear edema” value (TPA-induced ear edema; [9]) was 77.5% and the Weight per punch (TPA-induced ear edema; [9]) was 9.25 ± 0.66 mg. It also gave a parametrial fat [3] of 1.21 ± 0.18 gm, a retroperitoneal fat [3] of 0.85 ± 0.01 gm and a Body weight [3] of 37.3 ± 1.07 gm.
Work on `O=C(O)CC(O)(C(=O)O)C(O)C(=O)O` (stereo not drawn) [HCA, 1,2-dihydroxypropane-1,2,3-tricarboxylic acid] yielded a Body weight ([1]; 5 weeks) of 32.5 ± 0.42 gm, a Body weight ([1]; 7 weeks) of 34.5 ± 0.59 gm and a Body weight ([1]; 10 weeks) of 36.8 ± 0.33 gm. For the same compound, the AC per colon [2] was 7.9, the “AC per colon, percentage in parentheses (reduction versus control)” value [2] was 30.7% and the “inhibition of ATP citrate lyase enzyme” value (ATP citrate lyase enzyme) was “potent linear competitive inhibitor”. The “weight loss and cumulative food intake” value [4] was “weight loss with no decrease in cumulative food intake”, the parametrial fat [3] was 1.24 ± 0.06 gm and the retroperitoneal fat [3] was 0.79 ± 0.04 gm. For the same compound, the Body weight [3] was 37.9 ± 0.66 gm, the food intake [5] was “consumed less food” and the “hepatic synthesis of fatty acids and cholesterol” value [5] was “significantly diminished”.
For `O=C([O-])CC(O)(C(=O)[O-])C(O)C(=O)[O-].[K+].[K+].[K+]` (stereo not drawn) [potassium HCA], the “concentration needed in the cytosol to effectively inhibit ATP citrate lyase” value (ATP citrate lyase [6]; cytosol) is given as 0.5 mM, the “extracellular concentration that could inhibit ATP citrate lyase” value (ATP citrate lyase [6]; hepatic cells, extracellular) is given as 5 mM and the “excess needed outside the target cell over cytosol concentration” value (ATP citrate lyase [7]) is given as 10 fold.
